Results published in US20190284192A1, “NITROGENOUS MACROCYCLIC COMPOUND, PREPARATION METHOD THEREFOR, PHARMACEUTICAL COMPOSITION AND APPLICATION THEREOF” (LUOXIN PHARMACEUTICAL (SHANGHAI) CO., LTD., priority 2016, published 2019).
Like-named read-outs stand apart in the source and are kept apart here.

Assays:
[1] = Cassette pharmacokinetic study, intravenous or oral administration; type: in vivo, female Balb/c nude mice; parameters: Cmax: unit not given here; settings: for F: PO 2 mg/kg vs IV 0.5 mg/kg; for Cmax / AUC(0-inf) / AUC(0-t) / MRT inf / clearance / half-life / Vd / Tmax: N = 3, cassette; for AUC(0-inf) / AUC(0-t) / MRT inf / clearance / half-life / Vd / Tmax: female, Balb/c nude, mouse, whole blood; for half-life: read-out: Terminal t1/2 (converted); for Vd: read-out: Vss
Experimental: Determinations of the pharmacokinetic parameters of ABBV-075 (standard control), 4009, 4018, 4026 and 4031 in femal Balb/c nude mice after intravenous or oral administration.
Detailed Experimental Steps:
6 female Balb/c nude mice weighing 18-20 g were divided into two groups (3/group), after fixation, the intravenous group: 0.5 mg/kg (5 mL/kg) injected by caudal vein (N=3); the oral group: 2 mg/kg (10 mL/kg) by intragastic administration (N=3). Approximately 20 μL of blood was drawn behind the eyeball at the sampling point and placed in EDTA-2K tube. The sample was immediately diluted with 40 μL of double distilled water and vortexed until well mixed. Blood samples were stored at approximately −70° C. and submitted to the BA group for analysis (LC/MS). 30 μL of blood sample was added with 200 μL of H2O and 30 μL of IS dexamethasone, 200 ng/mL), layered by LLE, and 1 mL of MTBW was added as an organic extraction solvent. The mixture was vortexed for 10 min and centrifuged at 10,000 rpm for 5 min. 850 μL of the supernatant was evaporated under nitrogen until desiccated. The desiccated extract was re-mixed with 150 μL of 50% methanol, vortexed for 2 min, and then analyzed by injecting 5 μL of the supernatant into LC-MS/MS.
2. Intravenous/oral administration formula: 5% DMSO, 95% (10% HP-3-CD in water)
3. PK calculation parameter used non-compartment model, WinNonlin 6.4 software calculation

[2] = tested on: MV-4-11 cells; test: Inhibitory effect on MV-4-11 cells (CellTiter-Glo); type: cell-based; settings: Homo sapiens, MV4-11; 72 hours, CellTiter-Glo; read-out: MV-4-11
[3] = target: T1, BRD4 (BD1) (Homo sapiens, UniProt O60885); test: BRD4 (BD1) bromodomain binding, HTRF; settings: 2 h incubation at r.t.
T1 construct: Each member comprises two tandem bromodomains (BD1 and BD2) for recognizing the acetylated lysine residues

[4] = Metabolic stability in human liver microsomes; type: in vitro ADME; settings: human liver microsomes 0.5 mg/mL, NADPH, 37° C.; for CLint scaled at 1 µM: pH 7.4, read-out: HLM_CLint
Experimental: (§1) Determinations of the metabolic stability of the compound from the above embodiments, the detailed operation steps are as followed:
(§2) 1. Preparation of buffer C:
(§3) Buffer A: 1.0 L of 0.1 M potassium dihydrogen phosphate buffer (containing 1.0 mM EDTA);
(§4) Buffer B: 1.0 L of 0.1 M dipotassium hydrogen phosphate buffer (containing 1.0 mM EDTA);
(§5) Buffer C: 500 mL Buffer B was titrated with Buffer A to pH 7.4.
(§6) 2. 10 mM stock solution preparation:
(§7) 10 mM test compound: A certain amount of the test compound was weighed and dissolved in DMSO.
(§8) 10 mM control: 5.455 mg of ketanserin dissolved in 1 mL DMSO.
(§9) 3. Preparation of the drug solution:
(§10) 500 μM solution: 5 μL of 10 mM stock solution (see step 2) was added into 95 μL ACN;
(§11) 1.5 μM dosing solution (dissolved in liver microsome solution):
(§12) 18.75 μL of 20 mg/mL liver microsomes was added into 479.75 μL of Buffer C, then 1.5 μL of 500 μM solution was added and mixed gently by shaking.
(§13) 4. Preparation of 6 mM NADPH solution:
(§14) 15 mg NADPH was weighted, then added into 3 mL of buffer C to prepare a 6 mM NADPH solution.
(§15) 5. 30 µL of 1.5 μM dosing solution (see step 3) was added into the wells of the 96-well plate set at different time points (0 minutes, 5 minutes, 15 minutes, 30 minutes, 45 minutes), number of dulplicate sample is 2.
(§16) 6. Preparation of a 0 minutes sample: 135 μL ACN (with internal standard) was added to the 0 minutes well, followed by 15 µL of 6 mM NADPH solution.
(§17) 7. The 96-well plate containing 1.5 μM dosing solution and NADPH solution were preheated in a 37° C. water bath for 5 minutes.
(§18) 8. The 15 µL of 6 mM NADPH solution preheated was added into the wells set to 5 minutes, 15 minutes, 30 minutes, 45 minutes, then the reaction was initiated and started counting the time.
(§19) 10. The sample was vortexed for 10 min, and then centrifuged for 15 minutes on a centrifuge (Thermo Multifuge×3R) using 5594×g.
(§20) 11. 50 μL of the supernatant was taken from the centrifuged sample, transferred to a 96-well sample plate to which 100 μL of ultrapure water had already been added, mixed, and finally sent to LC-MS/MS for analysis.
(§21) Half time (T1/2)=0.693/K (K is the rate constant obtained by linear regression of the logarithm of the concentration as vertical coordinates and the culturing time as the abscissa)
(§22) 2. According to the equation formula bellow, Excel was used to plot the compound content versus reaction time, as well as half life calculation (min)
(§23) Y=(Y0−Plateau)×e^(−K*X)+Plateau
(§24) Y0 represents the compound content at 0 minutes; Y represents the compound content; X represents the time point; K represents degration rate constant of the compound; Plateau represents the lowest possible content of the compound (defined herein as 0).

[5] = Metabolic stability in mouse liver microsomes; type: in vitro ADME; settings: mouse liver microsomes 0.5 mg/mL, NADPH, 37° C.; for CLint scaled at 1 µM: pH 7.4, read-out: MLM_CLint
Experimental: as §1, §2, §3, §4, §5, §6, §7, §8, §9, §10, §11, §12, §13, §14, §15, §16, §17, §18, §19, §20, §21, §22, §23, §24

[6] = target: T2, BRD4 (BD2) (Homo sapiens, UniProt O60885); test: BRD4 (BD2) bromodomain binding, HTRF; settings: 2 h incubation at r.t.
T2 construct: Each member comprises two tandem bromodomains (BD1 and BD2) for recognizing the acetylated lysine residues

[7] = tested on: MV-4-11 subcutaneous xenograft tumor; test: Anti-tumor efficacy in vivo, MV-4-11 subcutaneous xenograft model; parameters: species or system BALB/c nude mice; settings: intragastric QD*14
Experimental: According to the growth of the cells, the treatment was passaged twice a week. When the cells are in the exponential growth phase, the cells are collected, counted, and inoculated.
Experimental protocol: 0.2 mL of cell suspension containing about 5×10^MV-4-11 cells (cell suspended in IMDM medium and added with 50% Matrigel) was inoculated subcutaneously into the right back of each mouse. Group administration was initiated when the average tumor volume reached approximately 136.94 mm^3 (day 15 post inoculation). Grouping method: Animals were weighed before dosing and tumor volume was measured. Grouping designed based on tumor volume.
The experimental indicator is to investigate whether tumor growth can be inhibited, delayed or cured. Tumor diameters were measured with vernier calipers three times a week. The formula for calculating tumor volume is: V=0.5×a×b^2, a and b represent the long and short diameters of the tumor, respectively. The antitumor effect of the compound was evaluated by T/C (%). T/C %=TRTV/CRTV×100% (TRTV: treatment group RTV; CRTV: negative comparative group RTV). The relative tumor volume RTV is calculated as RTV=Vt/V1. Where V1 is the measured tumor volume at the time of group administration (i.e., Day 1), and Vt is the tumor volume at each measurement.
The tumor volume and tumor size were analysed by statistical software. GraphPad Prism software was used for analyzation, p<0.05 is considered to have significant difference, p<0.01 is considered to have extremely significant difference.
Two-way Anova Bonferroni post-test is used to compare the tumor volume difference between the control group and the treatment group.

[8] = Body weight of MV-4-11 tumor-bearing mice during treatment; type: in vivo; settings: intragastric QD*14, ABBV-075 3, GSK762 15, 4009 10 mg/kg
Experimental: The preparation and any revision of this experimental protocol are carried out in accordance with the evaluation criteria of the “Institute for Animal Care and Use (IACUC)” of Shanghai Chempartner Chemical Research Co., Ltd. The use and welfare of laboratory animals are carried out in accordance with the provisions of the Association for Assessment and Accreditation of Laboratory Animal Care (AAALAC). Animals are monitored daily for health and death. Routine examinations include observations of the effects of the test substance and the drug on the daily behavior of the animal such as behavioral activities, intake of water and feeds, weight change (three weights measured weekly), appearance signs or other anormal circumstance. The number of animal deaths and side effects in the group were recorded based on the number of animals in each group.

SMILES	IC50 [2]	IC50 [3]	HLM_T1/2 [4]	CLint scaled at 1 µM [4]	MLM_T1/2 [5]	CLint scaled at 1 µM [5]	IC50 [6]	also measured
CCS(=O)(=O)Nc1ccc2c(c1)-c1cn(C)c(=O)cc1CN=C2c1ccc(F)cc1 [Compound 4018, N-(7-(4-fluorophenyl)-2-methyl-3-oxo-3,5-dihydro-2H-benzo[c]pyrido[3,4-e]azapin-10-yl)ethanesulfonamide]	5 nM	3 nM	1043.26 min	1.67 mL/min/kg	352.12 min	15.5 mL/min/kg	2 nM	F [1]: 12.2%; Cmax ([1]; PO 2 mg/kg): 41.9; AUC(0-inf) ([1]; IV 0.5 mg/kg): 201 ng·h/mL; AUC(0-t) ([1]; IV 0.5 mg/kg): 199 ng·h/mL; MRT inf ([1]; IV 0.5 mg/kg): 0.59 h; clearance ([1]; IV 0.5 mg/kg): 41.8 mL/min/kg; half-life ([1]; IV 0.5 mg/kg): 0.685 h; Vd ([1]; IV 0.5 mg/kg): 1.51 L/kg; AUC(0-inf) ([1]; PO 2 mg/kg): 98.1 ng·h/mL; AUC(0-t) ([1]; PO 2 mg/kg): 89.7 ng·h/mL; Tmax ([1]; PO 2 mg/kg): 0.667 h; half-life ([1]; PO 2 mg/kg): 2.18 h
CCS(=O)(=O)Nc1cc2c(cc1Cl)C(c1ccc(F)cc1)=NCc1cc(=O)n(C)cc1-2 [Compound 4031, N-(9-chloro-7-(4-flurophenyl)-2-methyl-3-oxo-3,5-dihydro-2H-benzo[c]pyrido[3,4-e]azepin-10-yl)ethylsulfonamide]	3 nM	2 nM	∞		∞		1 nM	F [1]: 108%; Cmax ([1]; PO 2 mg/kg): 1009; AUC(0-inf) ([1]; IV 0.5 mg/kg): 771 ng·h/mL; AUC(0-t) ([1]; IV 0.5 mg/kg): 729 ng·h/mL; MRT inf ([1]; IV 0.5 mg/kg): 3.5 h; clearance ([1]; IV 0.5 mg/kg): 10.9 mL/min/kg; half-life ([1]; IV 0.5 mg/kg): 2.72 h; Vd ([1]; IV 0.5 mg/kg): 2.34 L/kg; AUC(0-inf) ([1]; PO 2 mg/kg): 3330 ng·h/mL; AUC(0-t) ([1]; PO 2 mg/kg): 3300 ng·h/mL; Tmax ([1]; PO 2 mg/kg): 0.5 h; half-life ([1]; PO 2 mg/kg): 3.84 h
CC[C@@H]1N=C(c2ccc(F)cc2)c2ccc(CS(=O)(=O)CC)cc2-c2cn(C)c(=O)cc21 [Compound 4038, (S)-5-ethyl-10-((ethylsulfonyl)methyl)-7-(4-flurophenyl)-2-methyl-2,5-dihydro-3H-benzo[c]pyrido[3,4-e]azepin-3-ketone]	4 nM	2 nM	∞		∞		1 nM	
C[C@@H]1N=C(c2ccc(F)cc2)c2ccc(CS(N)(=O)=O)cc2-c2cn(C)c(=O)cc21 [Compound 4071, (S)-(7-(4-flurophenyl)-2,5-dimethyl-3-oxo-3,5-dihydro-2H-benzo[c]pyrido[3,4-e]azepin-10-yl)methane sulfamide]	10 nM	2 nM	∞		∞		1 nM	
CNS(=O)(=O)Cc1ccc2c(c1)-c1cn(C)c(=O)cc1[C@H](C)N=C2c1ccc(F)cc1 [Compound 4072, (S)-1-(7-(4-flurophenyl)-2,5-dimethyl-3-oxo-3,5-dihydro-2H-benzo[c]pyrido[3,4-e]azepin-10-yl)-N-methylmethane sulfamide]	6 nM	1 nM	∞		372.45 min	14.7 mL/min/kg	1 nM	
C[C@@H]1N=C(c2ccc(F)cc2)c2ccc(CS(=O)(=O)N(C)C)cc2-c2cn(C)c(=O)cc21 [Compound 4073, (S)-1-(7-(4-flurophenyl)-2,5-dimethyl-3-oxo-3,5-dihydro-2H-benzo[c]pyrido[3,4-e]azepin-10-yl)-N,N-dimethylmethane sulfamide]	2 nM	1 nM	139.87 min	12.4 mL/min/kg	156.12 min	35 mL/min/kg	1 nM	
CCS(=O)(=O)Cc1ccc2c(c1)-c1cn(C)c(=O)cc1N(C)N=C2c1ccc(F)cc1 [Compound 4078, 10-((ethylsulfonyl)methyl)-7-(4-flurophenyl)-2,5-dimethyl-2,5-dihydro-3H-benzo[e]pyrido[4,3-c][1,2]diazepin-3-ketone]	14 nM	5 nM	727.04 min	2.39 mL/min/kg	195.55 min	27.9 mL/min/kg	2 nM	
CCS(=O)(=O)Cc1ccc2c(c1)-c1nn(C)c(=O)cc1C(C)N=C2c1ccc(F)cc1 (centres unmarked) [Compound 4081, 10-((Ethylsulfonyl)methyl)-7-(4-flurophenyl)-2,5-dimethyl-2,5-dihydro-3H-benzo[c]pyridazino[3,4-e]azepin-3-ketone]	30 nM	6 nM	2952.57 min	0.59 mL/min/kg	∞		3 nM	
CCNC(=O)C[C@@H]1N=C(c2ccc(Cl)cc2)c2cc(OC)ccc2-n2c(C)nnc21 [GSK762]								anti-tumor effect on the MV-4-11 cell xenograft tumor mouse model ([7]; ABBV-075 3 mg/kg, GSK762 15 mg/kg, 4009 10 mg/kg): no significant anti-tumor effect; Average tumor weight, 15th day of treatement ([7]; ABBV-075 3, GSK762 15, 4009 10 mg/kg): 0.522 ± 0.11 g; Average RCBW, Treatment end Day 15 ([8]; relative body weight change vs Day 1): 5.07%; Average body weight, Treatment end Day 15 ([8]; x ± SEM): 21.86 ± 0.38 g; Average body weight, Treatment start Day 1 ([8]; x ± SEM): 20.82 ± 0.40 g
